EC50 and IC50 data for 9 molecules are collected here from US20170008928A1, “NOVEL PEPTIDES AND PEPTIDE DERIVATIVES AND USES THEREOF” (Novo Nordisk A/S, priority 2015, published 2017).

Read-outs that look alike come from different tables or passages of the source. Starred links: 1 amine or outer side, 2 acyl side, 3 side chain; linkers in the order of their positions; H or OH if unused. Non-standard residues stand in square brackets, D forms with d. Residues, ends and D or L forms follow the SMILES beside them. *: point of attachment. Phe(4-CH2SO3H) = N[C@@H](Cc1ccc(CS(=O)(=O)O)cc1)C(=O)O; C20 diacid = O=C(O)CCCCCCCCCCCCCCCCCCC(=O)*; sY = N[C@@H](Cc1ccc(OS(=O)(=O)O)cc1)C(=O)O; C18 diacid = O=C(O)CCCCCCCCCCCCCCCCC(=O)*; γGlu = O=C(O)[C@H](CCC(=O)[*:2])N[*:1]; NMeF = CN[C@@H](Cc1ccccc1)C(=O)O; dNMeD = CN[C@H](CC(=O)O)C(=O)O; Nle = CCCC[C@H](N)C(=O)O; AEEA = NCCOCCOCC(=O)O Where only a bound is given, the exact number is not on record here.

For experiment [1], the target named is T1, human cholecystokinin-2 receptor (CCK-2R) (Homo sapiens, UniProt P32239).
T1 construct: host or cells: 1321-N1 cells (plasma membranes prepared by Evotec AG Hamburg)
T1 sequence (P32239 1-447): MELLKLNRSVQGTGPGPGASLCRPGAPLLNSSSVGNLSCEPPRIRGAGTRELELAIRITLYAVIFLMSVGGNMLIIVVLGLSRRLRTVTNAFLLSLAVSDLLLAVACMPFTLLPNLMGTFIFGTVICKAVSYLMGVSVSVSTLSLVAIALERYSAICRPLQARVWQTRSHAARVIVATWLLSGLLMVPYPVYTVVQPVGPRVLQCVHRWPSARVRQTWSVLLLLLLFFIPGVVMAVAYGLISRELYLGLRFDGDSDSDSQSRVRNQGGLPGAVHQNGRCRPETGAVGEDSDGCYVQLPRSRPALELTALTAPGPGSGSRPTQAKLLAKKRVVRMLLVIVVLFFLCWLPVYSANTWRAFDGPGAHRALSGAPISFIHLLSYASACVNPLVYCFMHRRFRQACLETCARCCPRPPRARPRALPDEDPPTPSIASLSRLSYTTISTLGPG
Put plainly: In vitro potency on CCK-2R, whole cell functional assay (IP1 accumulation, IP-One HTRF). Type of experiment: cell-based. A general note: In TR-FRET formats the signal depends on donor and acceptor labels being close together.

Experiment [2] has as its target T1, human cholecystokinin-2 receptor (CCK-2R). The experiment in a line: In vitro receptor binding to CCK-2R, SPA displacement of [125I]-CCK-8s from plasma membranes. How it is done: The in vitro binding affinity is a measure of the strength of attraction between a receptor and its ligand.
Displacement of radio ligand was measured as reduction in light emission from SPA beads.
The cells used in these assays were 1321-N1 cells stably expressing the CCK-1R or the CCK-2R (Perkin Elmer product numbers ES-530-A and ES-531-A, respectively see www.perkinelmer.com/Catalog/Product/ID/ES-530-A or -ES-531-A, respectively).
The cells were cultured in an incubator (95% RH (relative humidity), 5% (of standard atmospheric pressure) CO2, 37° C.) in cell culture medium (DMEM (Lonza catalogue BE-12-604F/U1), with 10% (v/v) Foetal Calf Serum (FCS, Gibco catalogue 16140-071), 1% (w/w) Sodium pyruvate (Gibco catalogue 11360-039), 500 μg/ml Geneticin® (G418) (Gibco catalogue 10131-027), 25 μg/ml Zeocin™ (Invitrogen catalogue R250-05), 1% (w/w) Pen/Strep (Gibco catalogue 15140-122)).
Plasma membranes were prepared by Evotec AG Hamburg by use of the ParrBomb (#4635, Parr Instrument Company). Cells were lysed with a lysis buffer (50 mM Tris, 2.5 mM EDTA, pH7) with added protease inhibitors (Complete Proteaseinhibitors EDTA-free (#05056489001, Roche), 1 tablet per 50 mL lysis buffer). The membrane fraction was separated by centrifugation. First, the cell lysate was centrifuged at 1000×g for 10 minutes at 4° C. The pellet was discarded and the supernatant was then centrifuged at 100.000×g for 30 minutes at 4° C. The supernatant was discarded and the pellet was re-suspended in 1 ml/5×10^8 cells ice cold membrane buffer (50 mM Tris, 320 mM Sucrose and Complete Proteaseinhibitors EDTA-free (#05056489001, Roche); pH7.4) and homogenised with dounce homogeniser. The protein concentration was determined using the Pierce™ BCA Protein Assay Kit according to kit manual, and the membrane preparation was adjust to the desired protein concentration with membrane buffer and aliquoted into pre-cooled tubes, snap-frozen in liquid nitrogen, and stored at −80° C.
CCK receptor binding assays were performed in 96-well Optiplates (Cat #6005290, PerkinElmer, Waltham, Mass., USA) in a total volume of 200 μl per well. CCK derivatives in 80% DMSO stock solutions of 800 μM were serially diluted […] in assay buffer (50 mM Tris/HCl, 4.5 mM MgCl2, […], 0.02% Tween 20, 0.25% ovalbumin, 0.1% pluronic F-68, pH 7.4) to final assay concentrations ranging from 10^−5 M (ten μM) to 10^−12 M (one pM).
Fifty μl of reference or test compounds were added to the Optiplates (using technical duplicates, i.e. two wells of each sample, one data point being the average of two wells), followed by addition of 150 μl of the mixture of SPA bead, radio ligand, and plasma membrane. The plates were sealed and incubated in the dark at +22° C. for 2 hours on a IKA MTS plate shaker (IKA-Werke D-79219 Staufen) set at 300 rpm and thereafter centrifuged at 1500 rpm for 10 minutes in a Heraeus Multifuge 3s centrifuge. SPA bead light emission was measured in a TopCount NXT (PerkinElmer) for 2 min/well after a delay of 60 min.
As a measure of compound affinity, calculations were performed in order to determine the half maximal inhibitory concentration (the IC50 value).
The data from the TopCounter were given as counts per minute (CPM). The CPM was plotted as a function of the concentration of compound. Dose-response curves were obtained, and IC50 values were calculated, by a nonlinear three-parameter logistic equation (log(agonist) vs response) with hillslope=−1, and shared top and bottom using the software programme GraphPad Prism v 6.0 (Graph Pad software, La Jolla, Calif., USA). The highest dose tested was 10^−5 M (1×10^7 pM).
The preference of a specific compound for the CCK-1 receptor, or the CCK-1R selectivity, may be defined as IC50 (CCK-2R)/IC50 (CCK-1R).
A minimum of three biological replicates was measured for each test compound on separate assay plates.

The mark [3] stands for this setting: 1321-N1 cells stably expressing CCK-2R, IP1 accumulation, highest dose tested 1×10^6 pM, read-out: EC50 (CCK-2R).
[4] abbreviates: displacement of [125I]-CCK-8s, plasma membranes of 1321-N1 cells expressing CCK-2R, highest dose tested 1×10^7 pM, read-out: IC50 (CCK-2R).

Take `CCCC[C@H](NC(=O)[C@@H](N)Cc1ccc(OS(=O)(=O)O)cc1)C(=O)NCC(=O)N[C@@H](Cc1c[nH]c2ccccc12)C(=O)N[C@@H](CCCC)C(=O)N(C)[C@H](CC(=O)O)C(=O)N(C)[C@@H](Cc1ccccc1)C(N)=O` [Example 72, sTyr-Nle-Gly-Trp-Nle-DMeAsp-MePhe-amide] (H-[sY][Nle]GW[Nle][dNMeD][NMeF]-NH2; N-terminus assumed): in experiment [1] (setting [3]), the EC50 (as a rule, the concentration needed to bring the measured effect to its halfway point) is greater than 1 µM. Also, in experiment [2] (setting [4]), the IC50 (commonly the concentration needed to halve the response being measured) is greater than 10 µM.
The like results for `CCCC[C@H](NC(=O)[C@H](Cc1c[nH]c2ccccc12)NC(=O)CNC(=O)[C@H](CC(C)C)NC(=O)[C@H](Cc1ccc(OS(=O)(=O)O)cc1)NC(=O)[C@H](N)CCC(=O)O)C(=O)N(C)[C@H](CC(=O)O)C(=O)N(C)[C@@H](Cc1ccccc1)C(N)=O` [Example 87, DGlu-sTyr-Leu-Gly-Trp-Nle-DMeAsp-MePhe-amide] (H-[dE][sY]LGW[Nle][dNMeD][NMeF]-NH2) were, in that order, greater than 1 µM and greater than 10 µM.
The like results for `CCCC[C@H](NC(=O)[C@H](Cc1c[nH]c2ccccc12)NC(=O)CNC(=O)[C@H](CC(C)C)NC(=O)[C@H](Cc1ccc(CS(=O)(=O)O)cc1)NC(=O)[C@@H](N)CC(=O)O)C(=O)N(C)[C@H](CC(=O)O)C(=O)N(C)[C@@H](Cc1ccccc1)C(N)=O` [Example 57, Asp-Phe(4-sulfomethyl)-Leu-Gly-Trp-Nle-DMeAsp-MePhe-amide] (H-D[Phe(4-CH2SO3H)]LGW[Nle][dNMeD][NMeF]-NH2) were, in that order, greater than 1 µM and greater than 10 µM.
Regarding `CCCC[C@H](NC(=O)[C@H](Cc1c[nH]c2ccccc12)NC(=O)CNC(=O)[C@H](CC(C)C)NC(=O)[C@H](Cc1ccc(OS(=O)(=O)O)cc1)NC(=O)[C@H](CC(=O)O)NC(=O)CC[C@H](NC(=O)COCCOCCNC(=O)COCCOCCNC(=O)CC[C@H](NC(=O)CCCCCCCCCCCCCCCCC(=O)O)C(=O)O)C(=O)O)C(=O)N(C)[C@H](CC(=O)O)C(=O)N(C)[C@@H](Cc1ccccc1)C(N)=O` [Example 32, (4S)-4-Carboxy-4-[[2-[2-[2-[[2-[2-[2-[[(4S)-4-carboxy-4-(17-carboxyheptadecanoylamino)butanoyl]amino]ethoxy]ethoxy]acetyl]amino]ethoxy]ethoxy]acetyl]amino]butanoyl-Asp-sTyr-Leu-Gly-Trp-Nle-DMeAsp-MePhe-amide], in experiment [1] (setting [3]), the EC50 was determined as 0.046 µM. The 50% inhibitory concentration (IC50) in experiment [2] (setting [4]) was 0.38 µM.
As for `CCCC[C@H](NC(=O)[C@H](Cc1c[nH]c2ccccc12)NC(=O)CNC(=O)[C@H](CCCCN)NC(=O)[C@H](Cc1ccc(OS(=O)(=O)O)cc1)NC(=O)[C@H](CC(=O)O)NC(=O)COCCOCCNC(=O)COCCOCCNC(=O)CC[C@H](NC(=O)CCCCCCCCCCCCCCCCC(=O)O)C(=O)O)C(=O)N(C)[C@H](CC(=O)O)C(=O)N(C)[C@@H](Cc1ccccc1)C(N)=O` [Example 16, 2-[2-[2-[[2-[2-[2-[[(4S)-4-Carboxy-4-(17-carboxyheptadecanoylamino)butanoyl]amino]ethoxy]ethoxy]acetyl]amino]ethoxy]ethoxy]acetyl-Asp-sTyr-Lys-Gly-Trp-Nle-DMeAsp-MePhe-amide] ({C18 diacid-γGlu-AEEA-AEEA}-D[sY]KGW[Nle][dNMeD][NMeF]-NH2), the IC50 in experiment [2] is greater than 10 µM.
For `CCCC[C@H](NC(=O)[C@H](Cc1c[nH]c2ccccc12)NC(=O)CNC(=O)[C@@H](NC(=O)[C@H](Cc1ccc(OS(=O)(=O)O)cc1)NC(=O)[C@@H](N)CC(=O)O)[C@@H](C)CC)C(=O)N(C)[C@H](CC(=O)O)C(=O)N(C)[C@@H](Cc1ccccc1)C(N)=O` [Example 81, Asp-sTyr-Ile-Gly-Trp-Nle-DMeAsp-MePhe-amide] (H-D[sY]IGW[Nle][dNMeD][NMeF]-NH2), the EC50 in experiment [1] (setting [3]) is greater than 1 µM. Moreover, the IC50 in experiment [2] (setting [4]) is greater than 10 µM.
Molecule `CC(C)C[C@H](NC(=O)[C@H](Cc1ccc(OS(=O)(=O)O)cc1)NC(=O)[C@H](CC(=O)O)NC(=O)COCCOCCNC(=O)COCCOCCNC(=O)CC[C@H](NC(=O)CCCCCCCCCCCCCCCCC(=O)O)C(=O)O)C(=O)NCC(=O)N[C@@H](Cc1c[nH]c2ccccc12)C(=O)N1CCC[C@H]1C(=O)N(C)[C@H](CC(=O)O)C(=O)N(C)[C@@H](Cc1ccccc1)C(N)=O` [Example 15, 2-[2-[2-[[2-[2-[2-[[(4S)-4-Carboxy-4-(17-carboxyheptadecanoylamino)butanoyl]amino]ethoxy]ethoxy]acetyl]amino]ethoxy]ethoxy]acetyl-Asp-sTyr-Leu-Gly-Trp-Pro-DMeAsp-MePhe-amide] ({C18 diacid-γGlu-AEEA-AEEA}-D[sY]LGWP[dNMeD][NMeF]-NH2) registered an EC50 in experiment [1] of 0.15 µM. The same molecule showed an IC50 in experiment [2] of 1 µM.
With `CCCC[C@H](NC(=O)[C@H](Cc1c[nH]c2ccccc12)NC(=O)CNC(=O)[C@@H](NC(=O)[C@H](Cc1ccc(OS(=O)(=O)O)cc1)NC(=O)[C@H](CC(=O)O)NC(=O)COCCOCCNC(=O)COCCOCCNC(=O)CC[C@H](NC(=O)CCCCCCCCCCCCCCCCC(=O)O)C(=O)O)[C@@H](C)CC)C(=O)N(C)[C@H](CC(=O)O)C(=O)N(C)[C@@H](Cc1ccccc1)C(N)=O` [Example 47, 2-[2-[2-[[2-[2-[2-[[(4S)-4-Carboxy-4-(17-carboxyheptadecanoylamino)butanoyl]amino]ethoxy]ethoxy]acetyl]amino]ethoxy]ethoxy]acetyl-Asp-sTyr-Ile-Gly-Trp-Nle-DMeAsp-MePhe-amide] ({C18 diacid-γGlu-AEEA-AEEA}-D[sY]IGW[Nle][dNMeD][NMeF]-NH2), in experiment [2] (setting [4]), the IC50 is 0.34 µM.
With `CCCC[C@H](NC(=O)[C@H](Cc1c[nH]c2ccccc12)NC(=O)CNC(=O)[C@H](CC(C)C)NC(=O)[C@H](Cc1ccc(OS(=O)(=O)O)cc1)NC(=O)[C@H](CCC(=O)O)NC(=O)COCCOCCNC(=O)COCCOCCNC(=O)CC[C@H](NC(=O)CCCCCCCCCCCCCCCCCCC(=O)O)C(=O)O)C(=O)N(C)[C@H](CC(=O)O)C(=O)N(C)[C@@H](Cc1ccccc1)C(N)=O` [Example 37, 2-[2-[2-[[2-[2-[2-[[(4S)-4-Carboxy-4-(19-carboxynonadecanoylamino)butanoyl]amino]ethoxy]ethoxy]acetyl]amino]ethoxy]ethoxy]acetyl-Glu-sTyr-Leu-Gly-Trp-Nle-DMeAsp-MePhe-amide] ({C20 diacid-γGlu-AEEA-AEEA}-E[sY]LGW[Nle][dNMeD][NMeF]-NH2), the IC50 in experiment [2] (setting [4]) is 0.43 µM.
